Measured values taken from patent US11274332B2, “Methods of administering 3,4-diaminopyridine” (SERB SA, priority 2011, dated 2022).

Assay: Food-effect crossover study, adverse events after single 20 mg amifampridine phosphate in healthy subjects (Examples 10, 11)
Assay type: in vivo
Description: This was a randomized, open-label, 2-treatment, 2-period crossover study with 44 completed subjects to assess the safety, tolerability, and the effect of food on the relative bioavailability of a single dose of amifampridine phosphate.
Safety was evaluated for all subjects who take at least one dose of 3,4-DAP. Safety was evaluated by recording the incidence of adverse events (AEs), physical examination, vital signs, concomitant medications, clinical laboratory assessments, and 12-lead electrocardiogram (ECG).
Analysis for the following safety parameters was carried out on the Safety Population: AEs which included all AEs, AEs by severity, drug-related AEs, deaths, SAEs, AEs leading to study discontinuation, and most frequent AEs, standard clinical laboratory tests, vital signs, ECG measurements, routine physical examinations, and prior and concomitant medications. The cut-off for frequency of AEs reported was determined based on the data. No formal statistical testing was performed for the safety analyses; only descriptive statistics were provided. Appropriate descriptive statistics for the safety data were determined using SAS Version 9.2.
AEs were coded according to the Medical Dictionary for Regulatory Activities (MedDRA; Version 13.0). […] The occurrence of AEs was assessed continuously from the time the subject signed the VID and consent. The reporting period for non-serious AEs was from the first dose to the final study visit. The investigator determined the severity of each event and the relationship of an AE to the IP and recorded it on the source documents and AE CRF. The nature, time of onset, duration, severity, and relationship to study drug was documented, including documentation of investigator assessment and review. All events were assessed to determine if the AE was serious.
The Investigator determined the severity of each event and the event was recorded on the source documents and AE CRF. A coding of “mild” meant there was no limitation of usual activities, “moderate” meant there was some limitation of usual activities, “severe” meant there was an inability to carry out usual activities.
The reporting period for AEs that met the criteria of an SAE began from the time of signing the VID and consent form through follow-up or early termination. […] Clinical Laboratory Assessments

SMILES: Nc1ccncc1N.O=P(O)(O)O [amifampridine phosphate, 3,4-diaminopyridine phosphate]
- General Disorders and Administration Site Conditions Total, drug-related AE: events (Female N=16): 2
- General Disorders and Administration Site Conditions Total, drug-related AE: subjects (Female N=16): 2
- Headache, drug-related AE: % of subjects (Female N=16): 19%
- Headache, drug-related AE: events (Female N=16): 3
- Headache, drug-related AE: subjects (Female N=16): 3
- Hypoaesthesia Facial, drug-related AE: % of subjects (Female N=16): (0%) [0]
- Hypoaesthesia Facial, drug-related AE: events (Female N=16): (0%) [0]
- Hypoaesthesia Facial, drug-related AE: subjects (Female N=16): 0
- Hypoaesthesia Oral, drug-related AE: % of subjects (Female N=16): 6%
- Hypoaesthesia Oral, drug-related AE: events (Female N=16): 1
- Hypoaesthesia Oral, drug-related AE: subjects (Female N=16): 1
- Hypoaesthesia, drug-related AE: % of subjects (Female N=16): 6%
- Hypoaesthesia, drug-related AE: events (Female N=16): 1
- Hypoaesthesia, drug-related AE: subjects (Female N=16): 1
- Nausea, drug-related AE: % of subjects (Female N=16): 13%
- Nausea, drug-related AE: events (Female N=16): 2
- Nausea, drug-related AE: subjects (Female N=16): 2
- Nervous System Disorders Total, drug-related AE: % of subjects (Female N=16): 63%
- Nervous System Disorders Total, drug-related AE: events (Female N=16): 31
- Nervous System Disorders Total, drug-related AE: subjects (Female N=16): 10
- Paraesthesia Oral, drug-related AE: % of subjects (Female N=16): 44%
- Paraesthesia Oral, drug-related AE: events (Female N=16): 12
- Paraesthesia Oral, drug-related AE: subjects (Female N=16): 7
- Paraesthesia, drug-related AE: % of subjects (Female N=16): 38%
- Paraesthesia, drug-related AE: events (Female N=16): 9
- Paraesthesia, drug-related AE: subjects (Female N=16): 6
- Possibly or probably related AEs, Mild: % of subjects (Female N=16): 75%
- Possibly or probably related AEs, Mild: events (Female N=16): 41
- Possibly or probably related AEs, Mild: subjects (Female N=16): 12
- Possibly or probably related AEs, Moderate: % of subjects (Female N=16): 6%
- Possibly or probably related AEs, Moderate: events (Female N=16): 1
- Possibly or probably related AEs, Moderate: subjects (Female N=16): 1
- Possibly or probably related AEs, Severe: % of subjects (Female N=16): (0%) [0]
- Possibly or probably related AEs, Severe: events (Female N=16): (0%) [0]
- Possibly or probably related AEs, Severe: subjects (Female N=16): 0
- Possibly or probably related AEs, Total: % of subjects (Female N=16): 75%
- Possibly or probably related AEs, Total: events (Female N=16): 42
- Possibly or probably related AEs, Total: subjects (Female N=16): 12
- Serious adverse events: % of subjects (Female N=16): (0%) [0]
- Serious adverse events: events (Female N=16): (0%) [0]
- Serious adverse events: subjects (Female N=16): 0
- Skin and Subcutaneous Tissue Disorders Total, drug-related AE: % of subjects (Female N=16): (0%) [0]
- Skin and Subcutaneous Tissue Disorders Total, drug-related AE: events (Female N=16): (0%) [0]
- Skin and Subcutaneous Tissue Disorders Total, drug-related AE: subjects (Female N=16): 0
- Vascular Disorders Total, drug-related AE: % of subjects (Female N=16): 6%
- Vascular Disorders Total, drug-related AE: events (Female N=16): 1
- Vascular Disorders Total, drug-related AE: subjects (Female N=16): 1
- Abdominal Pain Upper, drug-related AE: % of subjects (Male N=31): 3%
- Abdominal Pain Upper, drug-related AE: events (Male N=31): 1
- Abdominal Pain Upper, drug-related AE: subjects (Male N=31): 1
- Abdominal Pain, drug-related AE: % of subjects (Male N=31): 3%
- Abdominal Pain, drug-related AE: events (Male N=31): 1
- Abdominal Pain, drug-related AE: subjects (Male N=31): 1
- Abdominal Tenderness, drug-related AE: % of subjects (Male N=31): (0%) [0]
- Abdominal Tenderness, drug-related AE: events (Male N=31): (0%) [0]
- Abdominal Tenderness, drug-related AE: subjects (Male N=31): 0
- Acne, drug-related AE: % of subjects (Male N=31): 3%
- Acne, drug-related AE: events (Male N=31): 1
- Acne, drug-related AE: subjects (Male N=31): 1
- All treatment emergent AEs, Mild: % of subjects (Male N=31): 58%
- All treatment emergent AEs, Mild: events (Male N=31): 57
- All treatment emergent AEs, Mild: subjects (Male N=31): 18
- All treatment emergent AEs, Moderate: % of subjects (Male N=31): (0%) [0]
- All treatment emergent AEs, Moderate: events (Male N=31): (0%) [0]
- All treatment emergent AEs, Moderate: subjects (Male N=31): 0
- All treatment emergent AEs, Severe: % of subjects (Male N=31): 3%
- All treatment emergent AEs, Severe: events (Male N=31): 1
- All treatment emergent AEs, Severe: subjects (Male N=31): 1
- All treatment emergent AEs, Total: events (Male N=31): 58
- All treatment emergent AEs, Total: subjects (Male N=31): 19
- Constipation, drug-related AE: % of subjects (Male N=31): (0%) [0]
- Constipation, drug-related AE: events (Male N=31): (0%) [0]
- Constipation, drug-related AE: subjects (Male N=31): 0
- Diarrhoea, drug-related AE: % of subjects (Male N=31): (0%) [0]
- Diarrhoea, drug-related AE: events (Male N=31): (0%) [0]
- Diarrhoea, drug-related AE: subjects (Male N=31): 0
- Discontinued due to adverse events: % of subjects (Male N=31): 3%
- Discontinued due to adverse events: events (Male N=31): 1
- Discontinued due to adverse events: subjects (Male N=31): 1
- Dizziness, drug-related AE: % of subjects (Male N=31): 3%
- Dizziness, drug-related AE: events (Male N=31): 2
- Dizziness, drug-related AE: subjects (Male N=31): 1
- Dysgeusia, drug-related AE: % of subjects (Male N=31): 6%
- Dysgeusia, drug-related AE: events (Male N=31): 3
- Dysgeusia, drug-related AE: subjects (Male N=31): 2
- Fatigue, drug-related AE: % of subjects (Male N=31): 6%
- Fatigue, drug-related AE: events (Male N=31): 2
- Fatigue, drug-related AE: subjects (Male N=31): 2
- Feeling Hot, drug-related AE: % of subjects (Male N=31): 3%
- Feeling Hot, drug-related AE: events (Male N=31): 1
- Feeling Hot, drug-related AE: subjects (Male N=31): 1
- Flushing, drug-related AE: % of subjects (Male N=31): (0%) [0]
- Flushing, drug-related AE: events (Male N=31): (0%) [0]
- Flushing, drug-related AE: subjects (Male N=31): 0
- Gastrointestinal Disorders Total, drug-related AE: % of subjects (Male N=31): 13%
- Gastrointestinal Disorders Total, drug-related AE: events (Male N=31): 4
- Gastrointestinal Disorders Total, drug-related AE: subjects (Male N=31): 4
- General Disorders and Administration Site Conditions Total, drug-related AE: % of subjects (Male N=31): 10%
- General Disorders and Administration Site Conditions Total, drug-related AE: events (Male N=31): 3
- General Disorders and Administration Site Conditions Total, drug-related AE: subjects (Male N=31): 3
- Headache, drug-related AE: % of subjects (Male N=31): 6%
- Headache, drug-related AE: events (Male N=31): 2
- Headache, drug-related AE: subjects (Male N=31): 2
- Hypoaesthesia Facial, drug-related AE: % of subjects (Male N=31): 3%
- Hypoaesthesia Facial, drug-related AE: events (Male N=31): 1
- Hypoaesthesia Facial, drug-related AE: subjects (Male N=31): 1
- Hypoaesthesia Oral, drug-related AE: % of subjects (Male N=31): 13%
- Hypoaesthesia Oral, drug-related AE: events (Male N=31): 5
- Hypoaesthesia Oral, drug-related AE: subjects (Male N=31): 4
- Hypoaesthesia, drug-related AE: % of subjects (Male N=31): 3%
- Hypoaesthesia, drug-related AE: events (Male N=31): 1
- Hypoaesthesia, drug-related AE: subjects (Male N=31): 1
- Nausea, drug-related AE: % of subjects (Male N=31): 6%
- Nausea, drug-related AE: events (Male N=31): 2
- Nausea, drug-related AE: subjects (Male N=31): 2
- Nervous System Disorders Total, drug-related AE: % of subjects (Male N=31): 55%
- Nervous System Disorders Total, drug-related AE: events (Male N=31): 43
- Nervous System Disorders Total, drug-related AE: subjects (Male N=31): 17
- Paraesthesia Oral, drug-related AE: % of subjects (Male N=31): 42%
- Paraesthesia Oral, drug-related AE: events (Male N=31): 18
- Paraesthesia Oral, drug-related AE: subjects (Male N=31): 13
- Paraesthesia, drug-related AE: % of subjects (Male N=31): 19%
- Paraesthesia, drug-related AE: events (Male N=31): 11
